From paper PMC3336937 (2012)

Target: T1, KcsA (Streptomyces lividans, UniProt P0A334)
T1 sequence (P0A334 1-160): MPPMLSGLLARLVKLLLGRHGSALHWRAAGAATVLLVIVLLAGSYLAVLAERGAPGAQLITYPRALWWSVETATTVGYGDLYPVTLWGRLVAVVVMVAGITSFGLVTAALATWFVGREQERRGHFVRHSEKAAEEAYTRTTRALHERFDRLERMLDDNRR
Assay: Trp fluorescence quenching, purified reconstituted wild-type KcsA
Assay type: binding

Trp fluorescence quenching, purified reconstituted wild-type KcsA; binding const: 0.67 ± 0.04
SMILES: CCCCCCCCC(Br)C(Br)CCCCCCCC(=O)O (stereo not shown) [BrSA, 9,10-dibromostearic acid]
